# In paper PMC8196580, “Identification of Kaurane-Type Diterpenes as Inhibitors of Leishmania Pteridine Reductase I” (Molecules, 2021):
# Where two headings read alike, the source gives them in different places.
# How the values were obtained:
# L. major [1] = test: ChEMBL dataset of pIC50 values against L. major used for the RF model (Table S1); assay type: cell-based, Leishmania major; note: call rule not given here
# L. major [2] = tested on: L. major; design: method as in ChEMBL; conditions: ref ChEMBL, cited from earlier work
# [3] = Active/Inactive class assigned to the ChEMBL pIC50 value for Random forest model construction, ref ChEMBL
# [4] = ChemBL structures with pIC50 values used for Random forest model construction, L. major
# [5] = Active/Inactive class assigned to ChemBL structures for Random forest model construction (Table S1)
# [6] = ChemBL structures with pIC50 values used for Random forest model construction (Table S1)
Compound,Outcome (L. major [1]; [3]),pIC50 Value (L. major [2]; [4]),Outcome (L. major [1]; [5]),pIC50 Value (L. major [2]; [6])
C[C@@H](OP(N)(=O)N(CCCl)CCCl)c1ccc([N+](=O)[O-])cc1 (some centres unmarked) [CHEMBL2158071],Inactive,4.52,–,–
C[C@]12CC[C@H](O)C[C@@H]1CC[C@@H]1[C@@H]2CC[C@@]2(C)[C@H]1CC[C@@H]2[C@@](C)(O)c1ccncc1Cl [CHEMBL1214242],Active,5.10,–,–
COc1ccccc1C(=O)N/N=C/c1cc(O)ccc1O [CHEMBL2382047],Inactive,4.46,–,–
COC(=O)c1ccc(/C=N/NC(=O)c2ccccc2OC)cc1 [CHEMBL2382031],Inactive,4.81,–,–
C/C(=N/NC(N)=S)c1ccc(OCc2cn(CC(=O)c3ccc(Br)cc3)nn2)cc1 [CHEMBL4166113],–,–,Active,6.00
O=[N+]([O-])c1ccc(-c2nc3ccccc3[nH]2)cc1 [CHEMBL473361],–,–,Active,5.53
COc1cc(C)c(-c2ccc(O)c3c2C[C@@H](C)N[C@@H]3C)c2cccc(O)c12 [CHEMBL375542],Inactive,4.44,–,–
COc1ccccc1-c1nnc(-c2ccc(C(=O)N/N=C/c3ccc(C)cc3)cc2)o1 [CHEMBL4079056],Inactive,4.53,–,–
Cc1ccc2cc(/C=C/C(=O)c3sccc3Cl)c(Cl)nc2c1 [CHEMBL1940855],–,–,Active,5.77
Cc1cccc2oc(=O)c3c(c12)O[C@@H](C)[C@@]3(C)CC(=O)[C@@H]1OC1(C)C [CHEMBL465559],Inactive,4.43,–,–
CN(C)Cc1ccc(Nc2c3ccc(Cl)cc3nc3cc(Cl)ccc23)cc1 [CHEMBL36404],–,–,Active,5.70
O=[N+]([O-])c1ccc(Cn2cc(CNc3nnc(-c4ccc([N+](=O)[O-])o4)s3)nn2)cc1 [CHEMBL1951531],Inactive,4.49,–,–
COc1ccc(/C=N/NC(N)=S)cc1OCc1cn(CC(=O)c2ccc(F)cc2)nn1 [CHEMBL4167146],–,–,Active,5.32
CCOc1cc(NC(=N)c2ccccn2)ccc1-c1ccc(-c2ccc(NC(=N)c3ccccn3)cc2OCC)o1 [CHEMBL1276549],–,–,Active,7.59
c1cncc(-c2nc3ccccc3[nH]2)c1 [CHEMBL83103],–,–,Active,5.48
CCN1CSC(=S)N(C(C)c2ccccc2)C1 (centres unmarked) [CHEMBL4286479],Inactive,4.34,–,–
NP(=O)(OCc1c(F)cc([N+](=O)[O-])cc1F)N(CCCl)CCCl (centres unmarked) [CHEMBL1257018],–,–,Active,5.89
O=C(CCCl)N1c2ccccc2Oc2ccc(Cl)cc21 [CHEMBL3759105],Inactive,4.80,–,–
CC(C)=CC(=O)N[C@H]1CC[C@@]2(C)[C@@H](CC[C@@H]3[C@@H]2CC[C@]2(C)C([C@H](C)N(C)C)=CC[C@@H]32)[C@H]1O [CHEMBL496487],Inactive,4.95,–,–
O=[N+]([O-])c1ccc(-c2nnc(N3CCCCC3)s2)o1 [CHEMBL372172],–,–,Active,5.49
O=[N+]([O-])c1ccc2nc(-c3ccc(Cl)cc3)[nH]c2c1 [CHEMBL1407741],–,–,Active,5.63
O=[N+]([O-])c1ccc2nc(-c3ccc(F)cc3)[nH]c2c1 [CHEMBL2297902],–,–,Active,5.52

Compound,Outcome (L. major [1]; [3]),pIC50 Value (L. major [2]; [4]),Outcome (L. major [1]; [5]),pIC50 Value (L. major [2]; [6])
Cc1ccc(-c2nc3ccc([N+](=O)[O-])cc3[nH]2)o1 [CHEMBL2295863],–,–,Active,5.58
CC(=O)C1=C(CNc2ccc(C(=O)/C=C/c3cccc([N+](=O)[O-])c3)cc2)N(C)C(=O)NC1c1ccccc1 (centres unmarked) [CHEMBL3786374],–,–,Active,5.88
O=C(c1ccc(Cl)cc1)N1CCN(c2nnc(-c3ccc([N+](=O)[O-])o3)s2)CC1 [CHEMBL458528],Inactive,4.58,–,–
COc1ccc(-c2c(-c3ccccc3)nc3cnccn23)cc1 [CHEMBL3634351],Inactive,4.76,–,–
COc1cccc(/C=C/C(=O)C2=Cc3cc(Cl)ccc3OC2)c1OC [CHEMBL1095287],–,–,Active,5.55
COc1ccc(O)c(/C=N/NC(=O)c2ccccc2OC)c1 [CHEMBL2382038],Inactive,4.00,–,–
Cc1ccc(Cn2cc(CNc3nnc(-c4ccc([N+](=O)[O-])o4)s3)nn2)cc1 [CHEMBL1951530],Inactive,4.91,–,–
O=C(/C=C/c1ccc(-n2ccnc2)cc1)c1ccc(Cl)c(Cl)c1Cl [CHEMBL571575],–,–,Active,5.78
O=[N+]([O-])c1ccc2[nH]c(-c3c[nH]c4ccccc34)nc2c1 [CHEMBL2297905],–,–,Active,5.65
CC(C)c1ccc(-c2nc3ccccc3[nH]2)cc1 [CHEMBL2298014],–,–,Active,5.57
CC1=C(C(=O)Nc2ccc(C(=O)/C=C/c3ccc(O)cc3)cc2)C(c2ccc(C)cc2)NC(=S)N1 (centres unmarked) [CHEMBL3786661],–,–,Active,5.96
C/C(C=O)=C\CC/C(C)=C/Cc1cc(O)ccc1O [CHEMBL257343],Inactive,4.57,–,–
COc1ccccc1-c1nc2ccccn2c1-c1ccccc1 [CHEMBL2151883],Inactive,4.74,–,–
Fc1ccc(-c2nc3c(NCCN4CCOCC4)nccn3c2I)cc1 [CHEMBL3634362],–,–,Active,5.55
CC(=O)CCCCCCCCCCCC[C@H]1CC[C@@H](O)[C@@H](C)N1 [CHEMBL249464],Inactive,4.12,–,–
CC(=O)C1=C(C)NC(=O)NC1c1ccccc1 (centres unmarked) [CHEMBL1496818],–,–,Active,5.58
Fc1ccc(-c2nc3ccccn3c2-c2ccccc2)cc1 [CHEMBL2151873],Inactive,4.64,–,–
COc1ccc(OC)c(Nc2ncnc3ccc([N+](=O)[O-])cc23)c1 [CHEMBL3758611],Inactive,4.91,–,–
O=C(/C=C/C1=Cc2cc(Cl)ccc2OC1)c1ccccc1Cl [CHEMBL1097965],–,–,Active,5.91
COc1cc(OC)c2c(C)[n+](-c3ccc(C)cc3)c(C)cc2c1 [CHEMBL520612],–,–,Active,5.58
COc1cc(C2NC(=O)NC(C)=C2C(C)=O)ccc1O (centres unmarked) [CHEMBL1342564],–,–,Active,5.59
CC(C)N1CSC(=S)N(C(C)c2ccccc2)C1 (centres unmarked) [CHEMBL4283106],Inactive,4.67,–,–

Compound,Outcome (L. major [1]; [3]),pIC50 Value (L. major [2]; [4]),Outcome (L. major [1]; [5]),pIC50 Value (L. major [2]; [6])
Cl.N=C(NCc1ccccc1)c1ccc(N2CCN(c3nnc(-c4ccc([N+](=O)[O-])o4)s3)CC2)cc1 [CHEMBL1783206],Active,5.05,–,–
CC[C@H](CO)Nc1nc(NCc2ccccc2O)c2ncn(C(C)C)c2n1 [CHEMBL1094304],Inactive,4.33,–,–
Cc1cccc2cc(/C=C/C(=O)c3ccc(Br)s3)c(Cl)nc12 [CHEMBL1940870],–,–,Active,5.70
Cc1cc(C(=O)/C=C/c2cc3cccc(C)c3nc2Cl)c(C)s1 [CHEMBL1940865],–,–,Active,5.67
C[C@H](OP(N)(=O)N(CCCl)CCCl)c1ccc([N+](=O)[O-])cc1 (some centres unmarked) [CHEMBL2158072],Inactive,4.52,–,–
COc1ccc(/C=N/NC(N)=S)cc1OCc1cn(-c2ccc(C(=O)O)cc2)nn1 [CHEMBL4174032],–,–,Active,5.30
CN[C@@H](C)[C@H]1CC[C@H]2[C@@H]3CC[C@H]4[C@@H](OC(C)=O)[C@@H](NC(=O)C=C(C)C)CC[C@]4(C)[C@H]3CC[C@]12C [CHEMBL504923],–,–,Active,5.48
Cc1cccc2cc(C3CC(c4sccc4Br)=NN3)c(Cl)nc12 (centres unmarked) [CHEMBL2236132],–,–,Active,5.64
CCCCc1ccc(-[n+]2c(C)cc3cc(OC)cc(OC)c3c2C)cc1.F[B-](F)(F)F [CHEMBL481023],–,–,Active,5.57
O=C(CCl)N1c2ccccc2C=Cc2ccccc21 [CHEMBL3758271],Inactive,4.32,–,–
Cc1ccc2cc(C3CC(c4ccsc4)=NN3)c(Cl)nc2c1 (centres unmarked) [CHEMBL2236135],–,–,Active,5.54
Cc1cccc(Cn2cc(CNc3nnc(-c4ccc([N+](=O)[O-])o4)s3)nn2)c1 [CHEMBL1951529],Inactive,4.66,–,–
Cn1cc(C=Nc2ccccc2)c2ccccc21 [CHEMBL2071552],–,–,Active,5.49
c1ccc2c(Nc3ccc(NC4CCCC4)cc3)c3ccccc3nc2c1 [CHEMBL90679],–,–,Active,6.35
COc1ccc(/C=N/NC(=O)c2ccccc2OC)cc1Br [CHEMBL2382039],Active,5.12,–,–
C#CCOc1ccc(C(=O)/C=C/c2ccc(F)cc2)c(OCC#C)c1 [CHEMBL4162285],Active,5.00,–,–
CC(=O)N1CCN(c2nnc(-c3ccc([N+](=O)[O-])o3)s2)CC1 [CHEMBL192375],–,–,Active,5.96
c1ccc2[nH]c(-c3ccncc3)nc2c1 [CHEMBL379376],–,–,Active,5.35
COc1ccc(/C=N/NC(=O)c2ccc(-c3nnc(-c4ccccc4OC)o3)cc2)c(O)c1 [CHEMBL4090407],Active,5.18,–,–
COc1cc([N+](=O)[O-])ccc1COP(N)(=O)N(CCCl)CCCl (centres unmarked) [CHEMBL1256965],Inactive,4.81,–,–
